# From US8192962B2, “Processes for detecting toxic substances” (Daikin Industries, Ltd., priority 2001, dated 2012)
# Tested on: Metabolism protein genes
# Assay: DNA chip mRNA expression in yeast, metabolism protein genes (Table 7)
# Format: cell-based, Saccharomyces cerevisiae S288C
# Experimental: Yeast (Saccharomyces cerevisiae S288C (α SUC2mal mel gap2 CUP1)) were incubated at 25° C. on YPD medium (yeast extract 1%, polypepton 2%, glucose 2%). One of toxic chemical substances was added to the cells at logarithmic growth phase, and the cells were further incubated for two hours. Cells were cultured without any chemical substance in the same condition, and were used as control. Concentrations of the chemical substances were defined to inhibit the growth of the yeast but not lead to death.
# After completion of the incubation, the culture was centrifuged to collect the cells. To the cells, sodium acetate buffer (50 mM sodium acetate, 10 mM EDTA, 1% SDS) was added, and the mixture was shaken at 65° C. for five minutes, followed by returning to room temperature, and obtaining the supernatant, of which the procedures were repeated two times. To the supernatant, ½ amount of a solution of phenol/chloroform was added, and the mixture was centrifuged to give a supernatant, which was added with an equal amount of chloroform, and the mixture was centrifuged to give a supernatant. To the supernatant, an equal amount of isopropanol containing 0.3 M sodium acetate was added, and the mixture was allowed to stand at room temperature for 30 minutes, after which the mixture was centrifuged to give a sediment of the whole RNAs. Seventy % ethanol was added to the sediment, and the mixture was again centrifuged to give a sediment, which was then dried and dissolved in water. mRNA was isolated from the whole RNAs as followings. In view of the fact that a poly A chain is attached to the 3′ terminus of mRNA, a polynucleotide having a poly T structure which was immobilized on the surface of latex beads was used to trap the mRNA, and then the mRNA was washed and eluted with spine column (Oligotex-dT30<Super>mRNA Purification Kit, Takara). Reverse transcription of the mRNA was conducted with a reverse transcriptase (Super Script II Reverse Transcriptase; catalogue No. 18064-014, GibcoBRL) using fluorescence-labeled nucleotides to give cDNAs that were introduced with Cy3-dUTP or Cy5-dUTP during the reverse transcription.
# The labeled cDNAs were dissolved in TE buffer (10mM Tris-HCl/1 mM EDTA, pH8.0), and the solution was dropped on the DNA chip containing the whole genes of yeast (DNA Chip Research Inc. Japan) so that the cDNAs were hybridized on the DNA chip at 65° C. for over 12 hours. The fluoresces intensity of the DNA chip was read with a scanner, and the ratio relative to the fluorescence intensity resulting from the absence of chemical substance was estimated as the following, which is shown in Tables 1 to 9: […]
smiles,measurement,setting,value
"[Cl][Hg][Cl] [(3), HgCl2]",The level of expressed mRNA in the presence of chemical substance/The level of expressed mRNA in the absence of chemical substance,yeast gene YJR155W,1.4
same,The level of expressed mRNA in the presence of chemical substance/The level of expressed mRNA in the absence of chemical substance,yeast gene YKL035W,4.8
same,level of expressed mRNA in the presence/in the absence of chemical substance,yeast gene YKL060C,2.5
same,The level of expressed mRNA in the presence of chemical substance/The level of expressed mRNA in the absence of chemical substance,yeast gene YKL091C,1.4
same,The level of expressed mRNA in the presence of chemical substance/The level of expressed mRNA in the absence of chemical substance,yeast gene YKL104C,1.6
same,level of expressed mRNA in the presence/in the absence of chemical substance,yeast gene YKL148C,3.7
same,The level of expressed mRNA in the presence of chemical substance/The level of expressed mRNA in the absence of chemical substance,yeast gene YKL152C,1.9
same,level of expressed mRNA in the presence/in the absence of chemical substance,yeast gene YKL157W,2.3
same,The level of expressed mRNA in the presence of chemical substance/The level of expressed mRNA in the absence of chemical substance,yeast gene YKL213C,1.0
same,The level of expressed mRNA in the presence of chemical substance/The level of expressed mRNA in the absence of chemical substance,yeast gene YKL215C,1.3
same,level of expressed mRNA in the presence/in the absence of chemical substance,yeast gene YKR034W,1.1
same,The level of expressed mRNA in the presence of chemical substance/The level of expressed mRNA in the absence of chemical substance,yeast gene YLL058W,1.4
same,level of expressed mRNA in the presence/in the absence of chemical substance,yeast gene YLR006C,0.9
same,level of expressed mRNA in the presence/in the absence of chemical substance,yeast gene YLR044C,2.2
same,level of expressed mRNA in the presence/in the absence of chemical substance,yeast gene YLR056W,2.5
same,level of expressed mRNA in the presence/in the absence of chemical substance,yeast gene YLR058C,5.5
same,level of expressed mRNA in the presence/in the absence of chemical substance,yeast gene YLR081W,2.8
same,level of expressed mRNA in the presence/in the absence of chemical substance,yeast gene YLR089C,2.1
same,The level of expressed mRNA in the presence of chemical substance/The level of expressed mRNA in the absence of chemical substance,yeast gene YLR180W,2.4
same,The level of expressed mRNA in the presence of chemical substance/The level of expressed mRNA in the absence of chemical substance,yeast gene YLR273C,1.3
same,level of expressed mRNA in the presence/in the absence of chemical substance,yeast gene YLR284C,3.8
same,The level of expressed mRNA in the presence of chemical substance/The level of expressed mRNA in the absence of chemical substance,yeast gene YLR299W,1.5
same,The level of expressed mRNA in the presence of chemical substance/The level of expressed mRNA in the absence of chemical substance,yeast gene YLR300W,0.8
same,level of expressed mRNA in the presence/in the absence of chemical substance,yeast gene YLR304C,5.0
same,The level of expressed mRNA in the presence of chemical substance/The level of expressed mRNA in the absence of chemical substance,yeast gene YLR307W,0.7
same,The level of expressed mRNA in the presence of chemical substance/The level of expressed mRNA in the absence of chemical substance,yeast gene YLR348C,1.2
same,level of expressed mRNA in the presence/in the absence of chemical substance,yeast gene YLR354C,2.3
same,level of expressed mRNA in the presence/in the absence of chemical substance,yeast gene YLR372W,1.7
same,level of expressed mRNA in the presence/in the absence of chemical substance,yeast gene YML022W,2.0
same,The level of expressed mRNA in the presence of chemical substance/The level of expressed mRNA in the absence of chemical substance,yeast gene YML054C,1.3
same,The level of expressed mRNA in the presence of chemical substance/The level of expressed mRNA in the absence of chemical substance,yeast gene YML070W,2.5
same,The level of expressed mRNA in the presence of chemical substance/The level of expressed mRNA in the absence of chemical substance,yeast gene YML100W,10.6
same,The level of expressed mRNA in the presence of chemical substance/The level of expressed mRNA in the absence of chemical substance,yeast gene YMR008C,1.4
same,level of expressed mRNA in the presence/in the absence of chemical substance,yeast gene YMR011W,9.4
same,level of expressed mRNA in the presence/in the absence of chemical substance,yeast gene YMR015C,1.9
same,The level of expressed mRNA in the presence of chemical substance/The level of expressed mRNA in the absence of chemical substance,yeast gene YMR020W,0.9
same,level of expressed mRNA in the presence/in the absence of chemical substance,yeast gene YMR083W,2.6
same,The level of expressed mRNA in the presence of chemical substance/The level of expressed mRNA in the absence of chemical substance,yeast gene YMR105C,5.0
same,The level of expressed mRNA in the presence of chemical substance/The level of expressed mRNA in the absence of chemical substance,yeast gene YMR189W,1.9
same,level of expressed mRNA in the presence/in the absence of chemical substance,yeast gene YMR205C,2.3
same,level of expressed mRNA in the presence/in the absence of chemical substance,yeast gene YMR261C,3.6
same,The level of expressed mRNA in the presence of chemical substance/The level of expressed mRNA in the absence of chemical substance,yeast gene YMR271C,1.3
same,The level of expressed mRNA in the presence of chemical substance/The level of expressed mRNA in the absence of chemical substance,yeast gene YMR296C,1.2
same,level of expressed mRNA in the presence/in the absence of chemical substance,yeast gene YMR323W,2.9
same,The level of expressed mRNA in the presence of chemical substance/The level of expressed mRNA in the absence of chemical substance,yeast gene YNL012W,1.8
same,level of expressed mRNA in the presence/in the absence of chemical substance,yeast gene YNL025C,1.4
same,The level of expressed mRNA in the presence of chemical substance/The level of expressed mRNA in the absence of chemical substance,yeast gene YNL045W,2.0
same,The level of expressed mRNA in the presence of chemical substance/The level of expressed mRNA in the absence of chemical substance,yeast gene YNL104C,3.0
same,The level of expressed mRNA in the presence of chemical substance/The level of expressed mRNA in the absence of chemical substance,yeast gene YNL106C,0.8
same,The level of expressed mRNA in the presence of chemical substance/The level of expressed mRNA in the absence of chemical substance,yeast gene YNL169C,1.4
same,level of expressed mRNA in the presence/in the absence of chemical substance,yeast gene YNL192W,1.5
same,The level of expressed mRNA in the presence of chemical substance/The level of expressed mRNA in the absence of chemical substance,yeast gene YNL231C,0.8
same,The level of expressed mRNA in the presence of chemical substance/The level of expressed mRNA in the absence of chemical substance,yeast gene YNL322C,1.9
same,The level of expressed mRNA in the presence of chemical substance/The level of expressed mRNA in the absence of chemical substance,yeast gene YNL331C,1.3
same,The level of expressed mRNA in the presence of chemical substance/The level of expressed mRNA in the absence of chemical substance,yeast gene YNL332W,1.1
same,The level of expressed mRNA in the presence of chemical substance/The level of expressed mRNA in the absence of chemical substance,yeast gene YNR019W,1.6
same,The level of expressed mRNA in the presence of chemical substance/The level of expressed mRNA in the absence of chemical substance,yeast gene YNR033W,0.8
same,The level of expressed mRNA in the presence of chemical substance/The level of expressed mRNA in the absence of chemical substance,yeast gene YNR059W,0.2
same,The level of expressed mRNA in the presence of chemical substance/The level of expressed mRNA in the absence of chemical substance,yeast gene YOL058W,1.7
same,level of expressed mRNA in the presence/in the absence of chemical substance,yeast gene YOL086C,2.2
same,level of expressed mRNA in the presence/in the absence of chemical substance,yeast gene YOL108C,0.4
same,level of expressed mRNA in the presence/in the absence of chemical substance,yeast gene YOL116W,0.9
same,The level of expressed mRNA in the presence of chemical substance/The level of expressed mRNA in the absence of chemical substance,yeast gene YOL126C,1.0
same,The level of expressed mRNA in the presence of chemical substance/The level of expressed mRNA in the absence of chemical substance,yeast gene YOL153C,2.1
same,level of expressed mRNA in the presence/in the absence of chemical substance,yeast gene YOL156W,2.5
same,The level of expressed mRNA in the presence of chemical substance/The level of expressed mRNA in the absence of chemical substance,yeast gene YOL165C,1.8
same,level of expressed mRNA in the presence/in the absence of chemical substance,yeast gene YOR002W,1.9
same,level of expressed mRNA in the presence/in the absence of chemical substance,yeast gene YOR085W,1.9
same,The level of expressed mRNA in the presence of chemical substance/The level of expressed mRNA in the absence of chemical substance,yeast gene YOR099W,2.1
same,level of expressed mRNA in the presence/in the absence of chemical substance,yeast gene YOR103C,1.3
same,level of expressed mRNA in the presence/in the absence of chemical substance,yeast gene YOR108W,2.3
same,level of expressed mRNA in the presence/in the absence of chemical substance,yeast gene YOR128C,2.1
same,The level of expressed mRNA in the presence of chemical substance/The level of expressed mRNA in the absence of chemical substance,yeast gene YOR130C,1.4
same,level of expressed mRNA in the presence/in the absence of chemical substance,yeast gene YOR142W,3.4
same,level of expressed mRNA in the presence/in the absence of chemical substance,yeast gene YOR176W,2.7
same,level of expressed mRNA in the presence/in the absence of chemical substance,yeast gene YOR178C,4.8
same,level of expressed mRNA in the presence/in the absence of chemical substance,yeast gene YOR251C,1.3
same,The level of expressed mRNA in the presence of chemical substance/The level of expressed mRNA in the absence of chemical substance,yeast gene YOR336W,0.7
same,The level of expressed mRNA in the presence of chemical substance/The level of expressed mRNA in the absence of chemical substance,yeast gene YOR347C,2.1
same,level of expressed mRNA in the presence/in the absence of chemical substance,yeast gene YOR348C,1.2
same,The level of expressed mRNA in the presence of chemical substance/The level of expressed mRNA in the absence of chemical substance,yeast gene YPL017C,0.8
same,level of expressed mRNA in the presence/in the absence of chemical substance,yeast gene YPL028W,2.6
same,level of expressed mRNA in the presence/in the absence of chemical substance,yeast gene YPL057C,3.2
same,level of expressed mRNA in the presence/in the absence of chemical substance,yeast gene YPL135W,2.5
same,level of expressed mRNA in the presence/in the absence of chemical substance,yeast gene YPL148C,0.9
same,The level of expressed mRNA in the presence of chemical substance/The level of expressed mRNA in the absence of chemical substance,yeast gene YPR026W,5.0
same,level of expressed mRNA in the presence/in the absence of chemical substance,yeast gene YPR113W,3.7
same,level of expressed mRNA in the presence/in the absence of chemical substance,yeast gene YPR165W,1.6
same,The level of expressed mRNA in the presence of chemical substance/The level of expressed mRNA in the absence of chemical substance,yeast gene YPR167C,1.9
same,level of expressed mRNA in the presence/in the absence of chemical substance,yeast gene YPR183W,3.5
